What all share (format): binding
The target of experiment [1] is T1, DNA-dependent protein kinase (DNA-PK) (Homo sapiens, UniProt P78527).
T1 construct: endogenous in cells; host or cells: Jurkat, clone E6-1 (ATCC TIB-152) cell lysate
In words: kinobeads assay, DNA-PK. The note with it: kinobeads assay, Table 6; read-out: Inhibition values (IC50) DNAPK. The gist of the method:
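IC50 values came from dose-response curves after test compound (1:3 series) competed with an immobilized phenylmorpholin-chromen affinity matrix for kinases in Jurkat lysate at 5 mg/mL protein. Eluted captured DNA-PK and PI3Kδ were measured by specific-antibody dot blot and infrared imaging. Buffer was Tris pH 7.4, NP40, MgCl2, NaCl, vanadate, DTT, NaF.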

Experiment [2] has as its target T2, PI3Kalpha (PI3Ka) (Homo sapiens, UniProt P42336).
T2 construct: endogenous in cells; host or cells: cell lysate
The experiment in a line: kinobeads assay, PI3Kalpha. The settings on record: kinobeads assay, Table 6. The essentials: (§1)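 Test compounds at various concentrations were added to cell lysate together with beads carrying an immobilized phenylmorpholin-chromen ligand, competing for kinase binding. Captured proteins were separated, eluted and quantified by multiplexed immunodetection; IC50 values came from dose-response curves for each kinase.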

The target of experiment [3] is T3, PI3 Kgamma (PI3 Kg) (Homo sapiens, UniProt P48736).
T3 construct: endogenous in cells; host or cells: cell lysate
T3 sequence (P48736 whole entry): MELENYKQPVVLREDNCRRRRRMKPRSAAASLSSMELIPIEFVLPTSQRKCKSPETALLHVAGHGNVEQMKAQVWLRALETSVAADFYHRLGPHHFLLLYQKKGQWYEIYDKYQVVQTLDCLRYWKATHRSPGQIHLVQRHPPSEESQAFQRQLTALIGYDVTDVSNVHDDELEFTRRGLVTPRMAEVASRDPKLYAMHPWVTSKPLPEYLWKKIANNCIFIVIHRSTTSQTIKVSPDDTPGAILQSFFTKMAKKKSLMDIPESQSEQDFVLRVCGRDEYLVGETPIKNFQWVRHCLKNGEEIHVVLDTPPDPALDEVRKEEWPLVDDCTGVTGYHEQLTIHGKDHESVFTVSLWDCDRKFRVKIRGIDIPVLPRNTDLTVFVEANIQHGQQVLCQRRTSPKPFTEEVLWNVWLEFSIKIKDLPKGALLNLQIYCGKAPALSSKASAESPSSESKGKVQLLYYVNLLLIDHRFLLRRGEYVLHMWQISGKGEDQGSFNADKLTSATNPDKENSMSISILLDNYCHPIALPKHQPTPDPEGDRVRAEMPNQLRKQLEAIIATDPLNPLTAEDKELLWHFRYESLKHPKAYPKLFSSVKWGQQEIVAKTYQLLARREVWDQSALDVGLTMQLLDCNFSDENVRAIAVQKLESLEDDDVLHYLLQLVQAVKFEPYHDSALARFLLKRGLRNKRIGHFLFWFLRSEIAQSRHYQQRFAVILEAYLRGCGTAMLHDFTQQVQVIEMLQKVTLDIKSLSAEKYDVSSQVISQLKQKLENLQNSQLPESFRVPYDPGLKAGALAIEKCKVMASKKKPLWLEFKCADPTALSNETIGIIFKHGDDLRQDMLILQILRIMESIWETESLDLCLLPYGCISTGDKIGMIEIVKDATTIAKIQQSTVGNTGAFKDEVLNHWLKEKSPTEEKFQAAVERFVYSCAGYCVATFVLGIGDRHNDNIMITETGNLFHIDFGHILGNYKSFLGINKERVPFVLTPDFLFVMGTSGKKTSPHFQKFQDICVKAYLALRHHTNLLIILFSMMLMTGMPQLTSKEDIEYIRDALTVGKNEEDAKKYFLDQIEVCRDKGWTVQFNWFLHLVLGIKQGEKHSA
In words: kinobeads assay, PI3Kgamma. The settings on record: kinobeads assay, Table 6; read-out: Inhibition values (IC50) PI3Kg. The gist of the method:
as §1

For experiment [4], the target named is T4, PI3 Kbeta (PI3 Kb) (Homo sapiens, UniProt P42338).
T4 construct: endogenous in cells; host or cells: cell lysate
T4 sequence (P42338 whole entry): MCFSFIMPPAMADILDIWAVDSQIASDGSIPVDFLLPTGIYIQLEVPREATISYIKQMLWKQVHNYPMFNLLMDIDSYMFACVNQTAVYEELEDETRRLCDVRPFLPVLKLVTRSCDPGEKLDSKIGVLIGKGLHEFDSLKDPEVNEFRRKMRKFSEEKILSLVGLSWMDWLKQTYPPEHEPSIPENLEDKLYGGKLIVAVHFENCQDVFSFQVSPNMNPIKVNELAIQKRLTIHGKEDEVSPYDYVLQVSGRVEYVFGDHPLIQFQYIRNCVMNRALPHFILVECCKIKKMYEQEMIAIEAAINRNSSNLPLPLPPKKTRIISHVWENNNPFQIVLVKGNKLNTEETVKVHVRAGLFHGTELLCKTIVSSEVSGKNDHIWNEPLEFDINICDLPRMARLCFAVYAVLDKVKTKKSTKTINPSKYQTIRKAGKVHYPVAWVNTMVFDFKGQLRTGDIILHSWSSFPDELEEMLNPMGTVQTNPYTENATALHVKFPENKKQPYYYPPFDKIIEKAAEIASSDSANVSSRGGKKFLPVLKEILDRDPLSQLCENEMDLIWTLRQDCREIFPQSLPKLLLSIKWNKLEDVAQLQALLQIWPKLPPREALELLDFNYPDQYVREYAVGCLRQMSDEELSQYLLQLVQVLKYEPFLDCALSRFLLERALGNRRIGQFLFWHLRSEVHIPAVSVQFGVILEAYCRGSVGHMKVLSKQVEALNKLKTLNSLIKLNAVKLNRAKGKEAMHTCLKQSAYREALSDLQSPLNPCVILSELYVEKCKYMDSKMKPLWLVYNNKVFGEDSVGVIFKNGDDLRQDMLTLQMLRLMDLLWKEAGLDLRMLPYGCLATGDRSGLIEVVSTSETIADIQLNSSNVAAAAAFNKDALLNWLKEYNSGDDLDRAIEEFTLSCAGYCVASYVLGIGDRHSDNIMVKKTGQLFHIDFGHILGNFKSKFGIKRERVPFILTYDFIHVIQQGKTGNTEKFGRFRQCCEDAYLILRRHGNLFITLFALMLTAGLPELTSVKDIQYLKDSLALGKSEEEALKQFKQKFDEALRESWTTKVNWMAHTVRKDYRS
T4 sequence (P27986 whole entry partner): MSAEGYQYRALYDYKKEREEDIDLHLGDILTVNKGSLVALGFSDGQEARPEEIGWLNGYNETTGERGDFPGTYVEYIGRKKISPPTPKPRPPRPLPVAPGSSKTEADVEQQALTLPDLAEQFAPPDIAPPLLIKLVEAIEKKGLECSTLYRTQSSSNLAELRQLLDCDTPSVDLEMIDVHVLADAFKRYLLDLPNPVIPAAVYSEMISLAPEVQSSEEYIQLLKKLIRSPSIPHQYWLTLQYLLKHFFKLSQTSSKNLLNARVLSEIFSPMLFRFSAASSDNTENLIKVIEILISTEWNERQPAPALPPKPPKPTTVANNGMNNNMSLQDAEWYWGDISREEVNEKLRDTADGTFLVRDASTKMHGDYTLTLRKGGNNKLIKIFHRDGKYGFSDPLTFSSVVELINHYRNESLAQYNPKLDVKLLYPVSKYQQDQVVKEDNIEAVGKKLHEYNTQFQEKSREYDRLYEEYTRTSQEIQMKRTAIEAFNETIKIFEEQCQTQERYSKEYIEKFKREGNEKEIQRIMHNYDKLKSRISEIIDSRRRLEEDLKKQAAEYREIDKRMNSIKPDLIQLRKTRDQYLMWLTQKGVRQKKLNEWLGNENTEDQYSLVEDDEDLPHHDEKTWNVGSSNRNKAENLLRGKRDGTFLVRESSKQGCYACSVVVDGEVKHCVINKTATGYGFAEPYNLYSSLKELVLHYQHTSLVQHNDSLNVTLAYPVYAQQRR
In words: kinobeads assay, PI3Kbeta. The note with it: kinobeads assay, Table 6; read-out: Inhibition values (IC50) PI3Kb. The essentials: as §1

T2 sequence (P42336 whole entry): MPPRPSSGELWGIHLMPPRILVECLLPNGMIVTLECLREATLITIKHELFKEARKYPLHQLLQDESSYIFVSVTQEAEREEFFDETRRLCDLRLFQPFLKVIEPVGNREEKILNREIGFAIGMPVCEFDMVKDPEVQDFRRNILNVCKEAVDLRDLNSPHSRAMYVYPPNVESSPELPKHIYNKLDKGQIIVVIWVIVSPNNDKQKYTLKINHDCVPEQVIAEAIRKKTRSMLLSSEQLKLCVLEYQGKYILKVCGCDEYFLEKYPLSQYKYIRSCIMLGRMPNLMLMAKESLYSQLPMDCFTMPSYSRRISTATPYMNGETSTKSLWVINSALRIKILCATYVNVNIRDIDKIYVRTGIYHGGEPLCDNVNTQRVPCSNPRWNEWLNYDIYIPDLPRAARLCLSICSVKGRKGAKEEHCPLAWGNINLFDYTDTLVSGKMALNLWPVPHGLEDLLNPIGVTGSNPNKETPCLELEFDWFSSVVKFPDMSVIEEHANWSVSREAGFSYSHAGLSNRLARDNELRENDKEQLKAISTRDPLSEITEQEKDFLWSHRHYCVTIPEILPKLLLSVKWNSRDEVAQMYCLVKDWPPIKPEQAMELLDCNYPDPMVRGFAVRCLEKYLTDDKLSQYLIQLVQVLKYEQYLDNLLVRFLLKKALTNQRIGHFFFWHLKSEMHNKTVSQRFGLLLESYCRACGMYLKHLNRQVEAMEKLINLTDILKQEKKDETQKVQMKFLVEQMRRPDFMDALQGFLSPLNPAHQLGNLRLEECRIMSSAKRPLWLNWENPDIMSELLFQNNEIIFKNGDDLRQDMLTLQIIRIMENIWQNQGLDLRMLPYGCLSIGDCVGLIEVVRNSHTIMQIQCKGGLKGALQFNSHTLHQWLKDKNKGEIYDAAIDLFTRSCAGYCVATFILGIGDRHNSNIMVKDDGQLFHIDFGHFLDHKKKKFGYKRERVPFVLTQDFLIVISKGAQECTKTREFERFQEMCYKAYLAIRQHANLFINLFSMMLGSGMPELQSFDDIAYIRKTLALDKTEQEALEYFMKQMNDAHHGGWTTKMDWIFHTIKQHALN
T2 sequence (P27986 whole entry partner): as the sequence (P27986 whole entry partner) above

Regarding `CCNC(=O)Nc1ccc(-c2nc3c(c(N4CCOC[C@@H]4C)n2)CN(C(=O)OCC)C3)c(F)c1` [Example 113, (S)-ethyl-2-(4-(3-ethylureido)-2-fluorophenyl)-4-(3-methylmorpholino)-5H-pyrrolo[3,4-d]pyrimidine-6(7H)-carboxylate], the IC50 in experiment [1], in experiment [3] and in experiment [4] was more than 10 µM throughout. Also, the “Inhibition values (IC50) PI3Ka” value in experiment [2] is “D (D >10 μM)”.
In the case of `CCOC(=O)N1Cc2nc(-c3ccc(NC(=O)NCCF)cc3)nc(N3CCOC[C@@H]3C)c2C1` [Example 120, (S)-ethyl 2-(4-(3-(2-fluoroethyl)ureido)phenyl)-4-(3-methylmorpholino)-5H-pyrrolo[3,4-d]pyrimidine-6(7H)-carboxylate], the IC50 in experiment [1], in experiment [3] and in experiment [4] was more than 10 µM in each case. For the same compound, the “Inhibition values (IC50) PI3Ka” value in experiment [2] was “D (D >10 μM)”.
Consider `CCOC(=O)N1Cc2nc(-c3ccc(NC(=O)Nc4ccncc4)cc3)nc(N3CCOC[C@@H]3C)c2C1` [Example 121, (S)-ethyl 4-(3-methylmorpholino)-2-(4-(3-(pyridin-4-yl)ureido)phenyl)-5H-pyrrolo[3,4-d]pyrimidine-6(7H)-carboxylate], for which the IC50 in experiment [1], in experiment [3] and in experiment [4] was more than 10 µM throughout. Besides, the “Inhibition values (IC50) PI3Ka” value in experiment [2] is reported as “D (D >10 μM)”.
As for `CCNC(=O)Nc1ccc(-c2nc3c(c(N4CCOC[C@@H]4C)n2)CN(C2CCN(C(=O)OC)CC2)C3)cc1F` [Example 122, (S)-methyl 4-(2-(4-(3-ethylureido)-3-fluorophenyl)-4-(3-methylmorpholino)-5H-pyrrolo[3,4-d]pyrimidin-6(7H)-yl)piperidine-1-carboxylate], the IC50 in experiment [1], in experiment [3] and in experiment [4] was more than 10 µM in each case. In addition, in experiment [2], the “Inhibition values (IC50) PI3Ka” value is reported as “D (D >10 μM)”.
On to `CCOC(=O)N1Cc2nc(-c3ccc(NC(=O)NC4CC4)cc3F)nc(N3CCOC[C@@H]3C)c2C1` [Example 131, (S)-ethyl 2-(4-(3-cyclopropylureido)-2-fluorophenyl)-4-(3-methylmorpholino)-5H-pyrrolo[3,4-d]pyrimidine-6(7H)-carboxylate], for which the IC50 in experiment [1], in experiment [3] and in experiment [4] was more than 10 µM throughout. Further, in experiment [2], the “Inhibition values (IC50) PI3Ka” value was “D (D >10 μM)”.

A word on the IC50: it is the concentration that inhibits the measured activity by half.

(Values after patent US8785457B2 (Cellzome Limited, priority 2009, dated 2014).)
